According to patent US20160184271A1, “Amino Acid Composition for Use in the Treatment of a PDD” (N.V. Nutricia, priority 2013, published 2016):

The compounds below were run against mTOR (Homo sapiens, UniProt P42345) (assay: in vitro effect of amino acids on mTOR). Conditions: 1 mM rapamycin compared with 10 mM lysine.
Assay type: biochemical

| concentration having a comparable inhibitory effect on mTor [mM] | Compound |
| --- | --- |
| 10 | NCCCC[C@H](N)C(=O)O [lysine] |

Same assay, conditions: in vitro

| Compound | effect on mTOR (inhibitory or activating) |
| --- | --- |
| NCC(=O)O [glycine] | inhibitory effect of mTOR |
| N[C@@H](Cc1ccccc1)C(=O)O [Phenylalanine, phenylalanine] | inhibitory effect of mTOR |

The next lines start with the values.

| effect on mTOR (inhibitory or activating) | Compound |
| --- | --- |
| mTOR activating effect | CC(C)[C@H](N)C(=O)O [valine] |
| mTOR activating effect | CC(C)C[C@H](N)C(=O)O [leucine] |
| mTOR activating effect | CC[C@H](C)[C@H](N)C(=O)O [isoleucine] |
